According to ChEMBL document CHEMBL5543096 (J Med Chem, 2024):
Activity calls are given as the source filed them. The calls are words filed in the database; no cut-off is given here.

Experiments:
Mus musculus [1] = test: Antidepressant activity in Reserpine-induced depressive ICR mouse model assessed as reduction in weight loss at 25 to 300 microg/kg,ip administrated on day 4 to 8 for 5 days; format: functional, organism-based; conditions: dose 25-300 µg/kg, time 5.0 day
Mus musculus [2] = test: Antidepressant activity in chronic restraint stress-induced depressive C57BL/6J mouse model assessed as increase in hippocampal BDNF mRNA expression at 0.3 mg/kg,ip administration measured after 24 hrs by qRT-PCR analysis; format: functional, organism-based
[3] = Cmax in Sprague-Dawley rat at 0.3 mg/kg,ip measured at 0.05 to 24 hrs of post administration by LC-MS/MS analysis; format: ADME, organism-based; conditions: in vivo, time 0.05-24 hrs
Mus musculus [4] = test: Antidepressant activity in chronic restraint stress-induced depressive C57BL/6J mouse model assessed as increase in hippocampal BDNF protein expression at 0.3 mg/kg,ip administration measured after 8 hrs by Western blotting analysis; format: functional, organism-based
[5] = Half life in Sprague-Dawley rat at 0.3 mg/kg,ip measured at 0.05 to 24 hrs of post administration by LC-MS/MS analysis; format: ADME, organism-based; conditions: in vivo, time 0.05-24 hrs
[6] = Toxicity in chronic restraint stress-induced depressive C57BL/6J mouse model assessed as memory impairment at 4 mg/kg,ip administration and measured after 4 hrs by novel object recognition test; format: organism-based; conditions: in vivo
[7] = AUC (0 to last) in Sprague-Dawley rat at 0.3 mg/kg,iv measured at 0.05 to 24 hrs of post administration by LC-MS/MS analysis; format: ADME, organism-based; conditions: in vivo, time 0.05-24 hrs
Mus musculus [8] = test: Antidepressant activity in Reserpine-induced depressive C57BL/6J mouse model assessed as decrease in immobility time at 0.1 to 0.3 mg/kg,ip administration measured after 7 days by tail suspension test; format: functional, organism-based; conditions: dose 0.1-0.3 mg/kg, time 7.0 day
Mus musculus [9] = test: Antidepressant activity in chronic restraint stress-induced depressive C57BL/6J mouse model assessed as reduction in immobility time at 100 to 300 microg/kg,ip administrated on day 29 to 33 measured on day 35 by forced swimming test; format: functional, organism-based; conditions: dose 100-300 µg/kg, time 7.0 day
[10] = Tmax in Sprague-Dawley rat at 0.3 mg/kg,ip measured at 0.05 to 24 hrs of post administration by LC-MS/MS analysis; format: ADME, organism-based; conditions: in vivo, time 0.05-24 hrs
HT-22 = test: Neuroprotective activity against CORT-induced cytotoxicity in mouse HT-22 cells assessed as increase in cell viability at 12.5 to 100 uM incubated for 24 hrs by CCK-8 assay; format: functional, cell-based; conditions: dose 12.5-100 µM
[11] = AUC (0 to infinity) in Sprague-Dawley rat at 0.3 mg/kg,iv measured at 0.05 to 24 hrs of post administration by LC-MS/MS analysis; format: ADME, organism-based; conditions: in vivo, time 0.05-24 hrs
[12] = Toxicity in chronic restraint stress-induced depressive C57BL/6J mouse model assessed as kidney pathological change at 25 to 300 microg/kg,ip administrated on day 29 to 33 measured on day 36 by hematoxylin and eosin staining based microscopic analysis; format: tissue-based; conditions: in vivo, 192 h, dose 25-300 µg/kg, time 8 day
[13] = MRT (0 to infinity) in Sprague-Dawley rat at 0.3 mg/kg,ip measured at 0.05 to 24 hrs of post administration by LC-MS/MS analysis; format: ADME, organism-based; conditions: in vivo, time 0.05-24 hrs
Mus musculus [14] = test: Antidepressant activity in chronic restraint stress-induced depressive C57BL/6J mouse model assessed as increase in hippocampal BDNF mRNA expression at 0.3 mg/kg,ip administration measured after 8 hrs by qRT-PCR analysis; format: functional, organism-based
[15] = target: T1, Muscarinic acetylcholine receptor M1 (Homo sapiens, UniProt P11229); test: Binding affinity to human N-terminal eGFP-tagged CHRM1 expressed in HEK293T cells assessed as dissociation constant incubated for 10 mins by microscale thermophoresis assay; format: cell-based
T1 sequence (P11229 whole entry): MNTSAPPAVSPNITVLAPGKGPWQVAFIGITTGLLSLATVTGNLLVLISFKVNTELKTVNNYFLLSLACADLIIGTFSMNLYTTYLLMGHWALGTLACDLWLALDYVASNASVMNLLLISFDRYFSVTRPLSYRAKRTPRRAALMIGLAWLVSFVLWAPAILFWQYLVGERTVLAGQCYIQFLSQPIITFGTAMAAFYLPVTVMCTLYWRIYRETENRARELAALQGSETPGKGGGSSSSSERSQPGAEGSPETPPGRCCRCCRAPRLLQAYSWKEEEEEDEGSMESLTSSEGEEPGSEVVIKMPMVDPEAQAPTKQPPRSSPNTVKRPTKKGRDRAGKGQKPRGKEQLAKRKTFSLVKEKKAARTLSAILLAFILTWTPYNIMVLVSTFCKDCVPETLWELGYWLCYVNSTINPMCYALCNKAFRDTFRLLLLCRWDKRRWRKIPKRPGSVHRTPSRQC

[16] = Half life in Sprague-Dawley rat at 0.3 mg/kg,iv measured at 0.05 to 24 hrs of post administration by LC-MS/MS analysis; format: ADME, organism-based; conditions: in vivo, time 0.05-24 hrs
Mus musculus [17] = test: Antidepressant activity in chronic restraint stress-induced depressive C57BL/6J mouse model assessed as change in total distance traveled at 25 to 300 microg/kg,ip administrated on day 29 to 33 measured on day 34 by open field test; format: functional, organism-based; conditions: dose 25-300 µg/kg, time 6.0 day
Mus musculus [18] = test: Antidepressant activity in Reserpine-induced depressive ICR mouse model assessed as decrease in immobility time at 300 microg/kg,ip administrated on day 4 to 8 measured on day 11 by tail suspension test; format: functional, organism-based; conditions: dose 300.0 µg/kg, time 8.0 day
[19] = MRT (0 to infinity) in Sprague-Dawley rat at 0.3 mg/kg,iv measured at 0.05 to 24 hrs of post administration by LC-MS/MS analysis; format: ADME, organism-based; conditions: in vivo, time 0.05-24 hrs
Mus musculus [20] = test: Antidepressant activity in Reserpine-induced depressive ICR mouse model assessed as change in total distance traveled at 25 to 300 microg/kg,ip administrated on day 4 to 8 measured on day 9 by open field test; format: functional, organism-based; conditions: dose 25-300 µg/kg, time 6.0 day
Mus musculus [21] = test: Antidepressant activity in chronic restraint stress-induced depressive C57BL/6J mouse model assessed as increase in hippocampal BDNF protein expression at 0.3 mg/kg,ip administration measured after 24 hrs by Western blotting analysis; format: functional, organism-based
Mus musculus [22] = test: Antidepressant activity in Reserpine-induced depressive C57BL/6J mouse model assessed as decrease in immobility time at 0.1 to 1 mg/kg,ip administration measured after 30 mins by tail suspension test; format: functional, organism-based; conditions: dose 0.1-1 mg/kg
[23] = Cmax in Sprague-Dawley rat at 0.3 mg/kg,iv measured at 0.05 to 24 hrs of post administration by LC-MS/MS analysis; format: ADME, organism-based; conditions: in vivo, time 0.05-24 hrs
[24] = MRT (0 to last) in Sprague-Dawley rat at 0.3 mg/kg,iv measured at 0.05 to 24 hrs of post administration by LC-MS/MS analysis; format: ADME, organism-based; conditions: in vivo, time 0.05-24 hrs
[25] = AUC (0 to last) in Sprague-Dawley rat at 0.3 mg/kg,ip measured at 0.05 to 24 hrs of post administration by LC-MS/MS analysis; format: ADME, organism-based; conditions: in vivo, time 0.05-24 hrs
[26] = Toxicity in chronic restraint stress-induced depressive C57BL/6J mouse model assessed as decrease in percentage of spontaneous alternation at 4 mg/kg,ip administration by Y-maze test; format: organism-based; conditions: in vivo

Question: Which results are given for `CN1[C@@H]2C[C@@H](OC(=O)[C@@](F)(CO)c3ccccc3)C[C@H]1[C@@H]1O[C@@H]12`?
Answer: Activity (Mus musculus [1]): Active; Activity (Mus musculus [2]): inactive; Cmax [3]: 41.9 ng/mL; Activity (Mus musculus [4]): Active; half-life [5]: 16.6 min; Activity [6]: Toxic; AUC(0-t) [7]: 68.3 ng·h/mL; Activity (Mus musculus [8]): Active; Activity (Mus musculus [9]): Active; Tmax [10]: 12.5 min; Activity (HT-22): Active; AUC(0-inf) [11]: 71.4 ng·h/mL; Activity [12]: Non-Toxic; MRT inf [13]: 27.3 min; Activity (Mus musculus [14]): Active; Kd [15]: 336 µM; half-life [16]: 13.9 min; Activity (Mus musculus [17]): inactive; Activity (Mus musculus [18]): Active; MRT inf [19]: 16.6 min; Activity (Mus musculus [20]): inactive; Activity (Mus musculus [21]): inactive; Activity (Mus musculus [22]): Active; Cmax [23]: 230 ng/mL; MRT last [24]: 13.8 min; AUC(0-t) [25]: 24.2 ng·h/mL; Activity [26]: Toxic
